Laboratory results published in patent US12485107B2, “Methods for the prevention or treatment of cytokine storm” (Beth Israel Deaconess Medical Center, Inc., priority 2019, dated 2025).
Entries after “also recorded” stand apart in the source; their conditions may differ.

Tests used:
[1] = system: primary peritoneal murine macrophages; assay type: cell-based; conditions: RFU, percent increase above vehicle-treated macrophages
[2] = kidney injury model; Hye Khan et al. 2016; cited from earlier work
[3] = system: intraperitoneal ovarian tumors (ID8); test: In vivo cytokines (serum, ascites) in mice bearing intraperitoneal ID8 ovarian tumors
Method: In vivo cytokines (serum or ascites) or cytokines in conditioned medium of macrophages treated with PTUPB and exposed to paclitaxel- or carboplatin-generated debris, were assessed according to the protocols provided by Proteome Profiler Mouse Cytokine Array Kit Panel A, Proteome Profiler Mouse Angiogenesis Array Kit, or Proteome Profiler Human Cytokine Array Kit Panel A (R&D Systems, Inc., Minneapolis, MN). Array control allows for comparison between membranes. For in vivo analysis, n=2 mice/group (serum); n=1 mouse/group (ascites).
For quantitation of pro-inflammatory cytokines, serum or conditioned medium from macrophages treated with PTUPB and stimulated with paclitaxel-generated ID8 debris or from paclitaxel-generated ID8 debris alone without macrophages was used according to the protocols provided in each ELISA kit (R&D Systems, Minneapolis, MN).
All animal studies were reviewed and approved by the Animal Care and Use Committee of Beth Israel Deaconess Medical Center, Boston, MA Mice were housed at a maximum of 5 animals per cage in a pathogen-free facility with unlimited access to sterile water and chow. Daily welfare evaluations and animal sacrifices were carried out according to the Committee guidelines. For murine injections, chemotherapy-generated murine (ID8) or human (OVCAR5) ovarian tumor cell debris was combined with ID8 or OVCAR5 living cells at equal volumes in PBS. Six-week-old female C57BL/6 (The Jackson Laboratory, Bar Harbor, ME) or SCID mice (Charles River, Cambridge, MA) were injected subcutaneously or intraperitoneally with 100 μL/mouse of ID8 or OVCAR5 cells, respectively. For orthotopic injections, 6-week-old C57BL/6 female mice were injected with 20 μL/mouse of matrigel (Becton Dickinson and Company, Franklin Lakes, NJ) mixed with paclitaxel-generated ID8 debris and/or ID8 living cells at a 1:1 (matrigel:cells) ratio directly into the right ovarian bursa. Systemic treatment with PTUPB (30 mg/kg/day) or control was administered via mini-osmotic pumps (Alzet Inc., Cupertino, CA) implanted into the peritoneum of the mice 4 weeks post-injection. […]

[4] = system: human monocyte-derived macrophage; assay type: cell-based; conditions: 5 μM, 2 hours
ID8 tumor cells = test: MTT proliferation assay; assay type: cell-based, murine; conditions: 1-10 μM, 24 hours
Method: Cell Proliferation Kit 1 (MTT) (Roche, Basel, Switzerland) was used according to recommended protocol to quantify proliferation. ID8 cells were plated at 5×10^3 cells/well in 96-well plates with DMEM supplemented with 1% FBS and 1% GPS and incubated overnight. Cells were re-fed with DMEM supplemented with 1% FBS and 1% GPS and vehicle or PTUPB (1, 5, or 10 μM). After a 24 hour incubation at 37° C., 10 μL of MTT reagent was added to each well and incubated for 4 hours at 37° C. Next, 100 μL of solubilizing solution was added to each well and incubated overnight at 37° C. VersaMax microplate reader (Molecular Devices, San Jose, CA) was used to quantify the results of the assay. Absorbance readings were normalized to vehicle. Experiments were performed three times with similar results.

[5] = system: RAW264.7 murine macrophages; test: Annexin V/PI cell death analysis of RAW264.7 macrophages; assay type: cell-based; conditions: 5 μM, 24 hours, vs vehicle
Method: Murine (ID8) or human (OVCAR5) ovarian tumor cells were treated with vehicle or a chemotherapeutic agent (e.g., cisplatin, carboplatin, or paclitaxel) as described. B/CMBA.Ov murine ovarian epithelial cells were treated with vehicle or PTUPB (1 or 5 μM) for 24 hours. The floating population (e.g., dead cells or “debris”) was collected, and the remaining adhered cells were trypsinized and combined with the dead cells. RAW264.7 murine macrophages were treated with vehicle or PTUPB (5 μM) for 24 hours. The floating population was collected and the remaining adhered cells were detached using a cell scraper (Corning Inc., Corning, NY) and combined with the dead cells. Cells were counted via hemocytometer, pelleted, and resuspended in PBS at 1×10^6 cells/mL. Next, 2×10^5 cells were stained with annexin V and propidium iodide (PI) according to FITC Annexin V/Dead Cell Apoptosis Kit protocol (Life Technologies, Carlsbad, CA). Staining was assessed using the BD LSR Fortessa (BD Biosciences, San Jose, CA) at the Dana-Farber Cancer Institute Jimmy Fund Flow Cytometry Core, and analyzed using FlowJo software (Tree Star Inc., Ashland, OR). Experiments were performed three times with similar results.

[6] = system: RAW264.7 murine macrophages; test: LC-MS/MS oxylipin profiling of conditioned medium of debris-stimulated RAW264.7 macrophages; assay type: cell-based; conditions: 5 μM, 2 hours; paclitaxel-generated ID8 debris
Method: Macrophages were treated with vehicle or PTUPB (1-10 μM) in Dulbecco's phosphate-buffered saline containing calcium and magnesium (PBS^+/+) (Lonza, Basel, Switzerland) and incubated for 2 hours at 37° C. Carboplatin- or paclitaxel-generated ID8 or OVCAR5 debris was added to murine or human macrophages, respectively, at a 1:4 (macrophage:dead cell body) ratio and incubated for 1 hour at 37° C. Next, plates were aspirated, macrophages were re-fed with serum-free medium, and incubated overnight at 37° C. The conditioned medium was collected the next day, centrifuged at 1100 rpm for 5 minutes to remove particulates, and stored at −20° C. until further analysis via cytokine array, ELISA, or LC-MS/MS. Collection of RAW264.7 murine macrophage conditioned medium was repeated using debris from three distinct collections for a total of three separate experiments. Collection of human monocyte-derived macrophage conditioned medium was repeated using peripheral blood monocytes from three different human donors and debris from three distinct collections for a total of three separate experiments. Collection of primary murine peritoneal macrophages was repeated using macrophages pooled from 5-10 C57BL/6 female mice and debris from two distinct collections for a total of two separate experiments.
Oxylipins in conditioned medium from 3 biological repeats were analyzed by LC-MS/MS as described previously (Yang et al., Anal. Chem. 81(19):8085-8093 (2009)). In brief, 1 mL of medium was loaded onto the conditioned Oasis HLB solid phase extraction cartridge (Waters, Milford, MA), washed with 5% methanol solution, and eluted with 0.5 mL of methanol and 1.5 mL of ethyl acetate consequently. The elution was concentrated and reconstituted in 50 μL of methanol solution before injection into the UPLC/MS/MS system (Agilent 1200 SL and Sciex 4000 Qtrap system). The optimized parameters for LC-MS/MS were described in detail previously (Yang et al., supra).

## NS(=O)(=O)c1ccc(-n2nc(CCCNC(=O)Nc3ccc(C(F)(F)F)cc3)cc2-c2ccccc2)cc1 [PTUPB, 4-(5-phenyl-3-{3-[3-(4-trifluoromethyl-phenyl)-ureido]propyl}-pyrazol-1-yl) benzenesulfonamide]
[1]
  macrophage phagocytosis of aflatoxin B1-generated tumor cell debris, primary peritoneal murine macrophages: stimulates macrophage phagocytosis
[2]
  release of pro-inflammatory cytokines, such as CCL2/MCP-1: suppressed
[3]; ID8-bearing mice administered systemic chemotherapy (carboplatin), PTUPB-treated vs control
  serum levels of CXCL13/BCA-1 and SDF-1/CXCL12: reduced serum levels
[3]; intraperitoneal ID8 tumors, day 60 post-injection, vs control
  ascites levels of PIGF-2, PTX-3, MMP9, CCL2/MCP-1, fractalkine/CX3CL1, angiopoietin-1: decreased levels
[3]; mice i.p. injected with ID8 (1×10^6 living cells), day 60 post-injection, vs control
  pro-angiogenic factors serpin E1/PAI-1 and IGFBP1 in serum: inhibited pro-angiogenic factors
[4]
  cytokine storm induced by aflatoxin B1-generated HepG2 debris in human monocyte-derived macrophages: inhibited
ID8 tumor cells
  proliferation of ID8 tumor cells in vitro: inhibited proliferation
[5]
  induction of cell death of RAW264.7 macrophages: did not induce cell death
[6]
  debris-stimulated surge of COX-derived lipid mediators PGF2α, PGD2, PGJ2 released by macrophages: suppressed this debris-stimulated surge of bioactive lipids; also recorded: inhibits the surge
  reduction of PGE2, THF diol, 15-HETE, 11-HETE, 5-HETE by debris-stimulated macrophages: neutralized the reduction of these lipids; also recorded: neutralizing the reduction
  release of 15-oxoETE by macrophages in the presence of debris: suppressed the release of 15-oxoETE
